Results from ChEMBL document CHEMBL1201862, “PubChem BioAssay data set” (2004).
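48-hour exposure; five concentrations; linearly interpolated endpoints. Here, GI50 denotes the concentration required for 50% inhibition of growth.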 The source made the active and inactive calls. No stated cut-off is given here; in the data, active = GI50 up to about 1.1 µM and inactive = higher.

Columns and labels:
Experiment in all cases: growth of human tumour cells (NCI), 48 h
786-0 = system: 786-0
A498 = system: A498
A549 = system: A549
ACHN = system: ACHN
CCRF-CEM = system: CCRF-CEM
COLO 205 = system: COLO 205
DLD-1 = system: DLD-1
DMS-114 = system: DMS-114
EKVX = system: EKVX
HCC 2998 = system: HCC 2998
HCT-116 = system: HCT-116
HCT-15 = system: HCT-15
HL-60 = system: HL-60
HOP-18 = system: HOP-18
HOP-62 = system: HOP-62
HOP-92 = system: HOP-92
HT-29 = system: HT-29
IGROV-1 = system: IGROV-1
K562 = system: K562
KM-20L2 = system: KM-20L2
KM12 = system: KM12
LOX IMVI = system: LOX IMVI
LXFL 529 = system: LXFL 529
M14 = system: M14
M19-MEL = system: M19-MEL
MOLT-4 = system: MOLT-4
Malme-3M = system: Malme-3M
NCI-H226 = system: NCI-H226
NCI-H23 = system: NCI-H23
NCI-H460 = system: NCI-H460
NCI-H522 = system: NCI-H522
OVCAR-3 = system: OVCAR-3
OVCAR-4 = system: OVCAR-4
OVCAR-5 = system: OVCAR-5
OVCAR-8 = system: OVCAR-8
RPMI-8226 = system: RPMI-8226
RXF 393 = system: RXF 393
RXF 631 = system: RXF 631
SF-268 = system: SF-268
SF-295 = system: SF-295
SF-539 = system: SF-539
SK-MEL-28 = system: SK-MEL-28
SK-MEL-2 = system: SK-MEL-2
SK-MEL-5 = system: SK-MEL-5
SK-OV-3 = system: SK-OV-3
SN12C = system: SN12C
SNB-19 = system: SNB-19
SNB-75 = system: SNB-75
SNB-78 = system: SNB-78
SR = system: SR
SW-620 = system: SW-620
TK-10 = system: TK-10
U-251 = system: U-251
UACC-257 = system: UACC-257
UACC-62 = system: UACC-62
UO-31 = system: UO-31
XF498 = system: XF498
CAKI-1 = system: CAKI-1
DMS-273 = system: DMS-273

SMILES: COC(=O)CCC(NC(=S)N/N=C(\C)c1cnccn1)C(=O)OC (centres undefined)
- GI50 (786-0): 58.6 µM (inactive)
- GI50 (A498): > 100 µM (inactive)
- GI50 (A549): 58.7 µM (inactive)
- GI50 (ACHN): 29.8 µM (inactive)
- GI50 (CCRF-CEM): 16.8 µM (inactive)
- GI50 (COLO 205): 34.4 µM (inactive)
- GI50 (DLD-1): 48 µM (inactive)
- GI50 (DMS-114): 22.1 µM (inactive)
- GI50 (EKVX): 40 µM (inactive)
- GI50 (HCC 2998): 56.5 µM (inactive)
- GI50 (HCT-116): 33.9 µM (inactive)
- GI50 (HCT-15): 44.5 µM
- GI50 (HL-60): 14.8 µM (inactive)
- GI50 (HOP-18): 56.1 µM (inactive)
- GI50 (HOP-62): 36.2 µM (inactive)
- GI50 (HOP-92): > 100 µM (inactive)
- GI50 (HT-29): 93.3 µM (inactive)
- GI50 (IGROV-1): 69.8 µM (inactive)
- GI50 (K562): 22.9 µM (inactive)
- GI50 (KM-20L2): 38.6 µM (inactive)
- GI50 (KM12): 70.6 µM (inactive)
- GI50 (LOX IMVI): 31.6 µM (inactive)
- GI50 (LXFL 529): 57.7 µM (inactive)
- GI50 (M14): 42.4 µM (inactive)
- GI50 (M19-MEL): 39.5 µM (inactive)
- GI50 (MOLT-4): 15.7 µM (inactive)
- GI50 (Malme-3M): 54.1 µM (inactive)
- GI50 (NCI-H226): 44.5 µM (inactive)
- GI50 (NCI-H23): 87.5 µM (inactive)
- GI50 (NCI-H460): 53 µM (inactive)
- GI50 (NCI-H522): 27 µM (inactive)
- GI50 (OVCAR-3): 34.5 µM (inactive)
- GI50 (OVCAR-4): 56.2 µM (inactive)
- GI50 (OVCAR-5): 21 µM (inactive)
- GI50 (OVCAR-8): 38.6 µM (inactive)
- GI50 (RPMI-8226): 44.9 µM (inactive)
- GI50 (RXF 393): > 100 µM (inactive)
- GI50 (RXF 631): 73.5 µM (inactive)
- GI50 (SF-268): 35.4 µM (inactive)
- GI50 (SF-295): 52.4 µM (inactive)
- GI50 (SF-539): 62.5 µM (inactive)
- GI50 (SK-MEL-28): 55.8 µM (inactive)
- GI50 (SK-MEL-2): 68.1 µM (inactive)
- GI50 (SK-MEL-5): 34.2 µM (inactive)
- GI50 (SK-OV-3): > 100 µM (inactive)
- GI50 (SN12C): 86.7 µM (inactive)
- GI50 (SNB-19): > 100 µM (inactive)
- GI50 (SNB-75): 85.3 µM (inactive)
- GI50 (SNB-78): > 100 µM (inactive)
- GI50 (SR): 29.2 µM (inactive)
- GI50 (SW-620): 49.3 µM (inactive)
- GI50 (TK-10): > 100 µM (inactive)
- GI50 (U-251): 52.4 µM (inactive)
- GI50 (UACC-257): 33.8 µM (inactive)
- GI50 (UACC-62): 28.6 µM (inactive)
- GI50 (UO-31): 49.1 µM (inactive)
- GI50 (XF498): > 100 µM (inactive)

SMILES: CN(C(=O)C12C3C4C1C1C2C3C41C(=O)N(C)C(C)(C)C)C(C)(C)C (centres undefined)
- GI50 (786-0): > 50 µM (inactive)
- GI50 (A498): > 50 µM (inactive)
- GI50 (A549): > 50 µM (inactive)
- GI50 (ACHN): > 50 µM (inactive)
- GI50 (CAKI-1): > 50 µM (inactive)
- GI50 (CCRF-CEM): > 50 µM (inactive)
- GI50 (COLO 205): > 50 µM (inactive)
- GI50 (DMS-114): > 50 µM (inactive)
- GI50 (DMS-273): > 50 µM (inactive)
- GI50 (EKVX): > 50 µM (inactive)
- GI50 (HCC 2998): > 50 µM (inactive)
- GI50 (HCT-116): > 50 µM (inactive)
- GI50 (HCT-15): > 50 µM
- GI50 (HL-60): > 50 µM (inactive)
- GI50 (HOP-62): > 50 µM (inactive)
- GI50 (HOP-92): > 50 µM (inactive)
- GI50 (HT-29): > 50 µM (inactive)
- GI50 (IGROV-1): > 50 µM (inactive)
- GI50 (K562): > 50 µM (inactive)
- GI50 (KM-20L2): > 50 µM (inactive)
- GI50 (LXFL 529): > 50 µM (inactive)
- GI50 (M14): > 50 µM (inactive)
- GI50 (M19-MEL): > 50 µM (inactive)
- GI50 (MOLT-4): > 50 µM (inactive)
- GI50 (Malme-3M): > 50 µM (inactive)
- GI50 (NCI-H522): > 50 µM (inactive)
- GI50 (OVCAR-3): > 50 µM (inactive)
- GI50 (OVCAR-8): > 50 µM (inactive)
- GI50 (RXF 631): > 50 µM (inactive)
- GI50 (SF-268): > 50 µM (inactive)
- GI50 (SF-295): > 50 µM (inactive)
- GI50 (SF-539): > 50 µM (inactive)
- GI50 (SK-MEL-28): > 50 µM (inactive)
- GI50 (SK-MEL-5): > 50 µM (inactive)
- GI50 (SK-OV-3): > 50 µM (inactive)
- GI50 (SN12C): > 50 µM (inactive)
- GI50 (SNB-19): > 50 µM (inactive)
- GI50 (SNB-75): 21.6 µM (inactive)
- GI50 (SNB-78): > 50 µM (inactive)
- GI50 (SR): > 50 µM (inactive)
- GI50 (SW-620): > 50 µM (inactive)
- GI50 (U-251): > 50 µM (inactive)
- GI50 (UACC-62): > 50 µM (inactive)
- GI50 (UO-31): > 50 µM (inactive)
- GI50 (XF498): > 50 µM (inactive)

SMILES: COc1ccc(C(=O)NCCN(C)C)c2nc3ccccc3nc12
- GI50 (786-0): 9.06 µM (inactive)
- GI50 (A498): 4.21 µM (inactive)
- GI50 (A549): 4.93 µM (inactive)
- GI50 (ACHN): 2.79 µM (inactive)
- GI50 (COLO 205): 3.46 µM (inactive)
- GI50 (DLD-1): 4.23 µM (inactive)
- GI50 (DMS-114): 3.39 µM (inactive)
- GI50 (DMS-273): 4.6 µM (inactive)
- GI50 (EKVX): 6.41 µM (inactive)
- GI50 (HCC 2998): 5.15 µM (inactive)
- GI50 (HCT-116): 2.24 µM (inactive)
- GI50 (HCT-15): 3.66 µM
- GI50 (HOP-18): > 30.8 µM (inactive)
- GI50 (HOP-62): 3.3 µM (inactive)
- GI50 (HOP-92): 9.51 µM (inactive)
- GI50 (HT-29): 2.76 µM (inactive)
- GI50 (IGROV-1): 3.14 µM (inactive)
- GI50 (K562): 2.05 µM (inactive)
- GI50 (KM-20L2): 4.95 µM (inactive)
- GI50 (KM12): 4.82 µM (inactive)
- GI50 (LOX IMVI): 2.01 µM (inactive)
- GI50 (LXFL 529): 6.7 µM (inactive)
- GI50 (M14): 5.37 µM (inactive)
- GI50 (M19-MEL): 3.15 µM (inactive)
- GI50 (MOLT-4): 1.94 µM (inactive)
- GI50 (Malme-3M): 2.3 µM (inactive)
- GI50 (NCI-H226): 3.48 µM (inactive)
- GI50 (NCI-H23): 4.72 µM (inactive)
- GI50 (NCI-H522): 11.7 µM (inactive)
- GI50 (OVCAR-3): 5.25 µM (inactive)
- GI50 (OVCAR-4): 4.09 µM (inactive)
- GI50 (OVCAR-5): 8.61 µM (inactive)
- GI50 (OVCAR-8): 4.3 µM (inactive)
- GI50 (RPMI-8226): 3.21 µM (inactive)
- GI50 (RXF 393): 11.4 µM (inactive)
- GI50 (RXF 631): 9.12 µM (inactive)
- GI50 (SF-295): 6.82 µM (inactive)
- GI50 (SF-539): 4.57 µM (inactive)
- GI50 (SK-MEL-28): 5.89 µM (inactive)
- GI50 (SK-MEL-2): 4.01 µM (inactive)
- GI50 (SK-MEL-5): 4.81 µM (inactive)
- GI50 (SK-OV-3): 19.5 µM (inactive)
- GI50 (SN12C): 3.62 µM (inactive)
- GI50 (SNB-19): 6.01 µM (inactive)
- GI50 (SNB-75): 8.11 µM (inactive)
- GI50 (SNB-78): 3.72 µM (inactive)
- GI50 (SR): 0.708 µM (active)
- GI50 (SW-620): 2.7 µM (inactive)
- GI50 (TK-10): 5.18 µM (inactive)
- GI50 (U-251): 4.79 µM (inactive)
- GI50 (UACC-257): 3.56 µM (inactive)
- GI50 (UACC-62): 5.38 µM (inactive)
